Assay results published in US20070225351A1, “Methods and compositions for controlling body weight and appetite” (priority 2002, published 2007).

Columns and labels:
[1] = Toxicokinetic evaluation in rats; settings: rat, in vivo; for AUC(0-t): Crl:CD(SD)IGS BR, po, 10 mg/kg/day, AUC0-24 h
Protocol: For toxicokinetic evaluation, all animals were observed twice daily for mortality and moribundity. Blood samples were collected from three animals/sex/group at 0 (pre-dose), 1, 2, 4, 8 and 24 hours after dose administration on study days 0 and 87. All toxicokinetic animals were euthanized and discarded following the final blood collection (study day 88).

in vivo = format: in vivo; settings: for mean body weight, lower than control: study week 13
Protocol: Eighteen male and eighteen female beagle dogs were received from Ridglan Farms, Mt. Horeb, Wis. […] Each group consisted of four males and four females. All animals/sex/group were scheduled for the primary necropsy at the end of the 13-week treatment period.
The animals were observed twice daily for mortality and moribundity. Clinical examinations were performed daily at the time of dosing and approximately 1-2 and approximately 3 hours following dose administration. Detailed physical examinations were performed weekly. Clinical pathology evaluations (hematology, serum chemistry and urinalysis) were performed prior to the initiation of dose administration (study week-1) and prior to the scheduled necropsy (study week 13). Individual body weights were recorded weekly, beginning approximately two weeks prior to test article administration (study week-2). Mean body weights and mean body weight changes were calculated for each corresponding interval. Final body weights (fasted) were recorded prior to the scheduled necropsy. […] Gross lesions were also examined from the 2.0 and 6.0 mg/kg/day groups.

Cl.Clc1ccc([C@@]23CNC[C@@H]2C3)cc1Cl (single isomer, unassigned) [(+)-1-(3,4-dichlorophenyl)-3-azabicyclo[3.1.0]hexane hydrochloride]
AUC(0-t) ([1]; female): 14400 ng·h/mL | AUC(0-t) ([1]; male): 8130 ng·h/mL | exposure versus dose [1]: increased dose-dependently | mean total cumulative body weight change, lower than control (in vivo; female dogs, 20 mg/kg/day, end of 13-week study): 65% | mean food consumption, lower than control (in vivo; female dogs, 20 mg/kg/day, first week of dose administration): 23% | mean body weight, lower than control (in vivo; female dogs, 20 mg/kg/day): 9% | weekly food consumption, MEAN (in vivo; female dogs, 2.0 MG/KG/DAY group, WEEK −1 TO 0 (before dosing)): 295. C/ANIMAL/DAY | weekly food consumption, MEAN (in vivo; female dogs, 2.0 MG/KG/DAY, WEEK 0 TO 1): 291. C/ANIMAL/DAY | weekly food consumption, MEAN (in vivo; female dogs, 2.0 MG/KG/DAY, WEEK 1 TO 2): 319. C/ANIMAL/DAY | weekly food consumption, MEAN (in vivo; female dogs, 2.0 MG/KG/DAY, WEEK 2 TO 3): 361. C/ANIMAL/DAY | weekly food consumption, MEAN (in vivo; female dogs, 2.0 MG/KG/DAY, WEEK 3 TO 4): 358. C/ANIMAL/DAY | weekly food consumption, MEAN (in vivo; female dogs, 2.0 MG/KG/DAY, WEEK 4 TO 5): 369. C/ANIMAL/DAY | weekly food consumption, MEAN (in vivo; female dogs, 2.0 MG/KG/DAY, WEEK 5 TO 6): 360. C/ANIMAL/DAY | weekly food consumption, MEAN (in vivo; female dogs, 2.0 MG/KG/DAY, WEEK 6 TO 7): 393. C/ANIMAL/DAY | weekly food consumption, MEAN (in vivo; female dogs, 2.0 MG/KG/DAY, WEEK 7 TO 8): 360. C/ANIMAL/DAY | weekly food consumption, MEAN (in vivo; female dogs, 2.0 MG/KG/DAY, WEEK 8 TO 9): 383. C/ANIMAL/DAY | weekly food consumption, MEAN (in vivo; female dogs, 2.0 MG/KG/DAY, WEEK 9 TO 10): 375. C/ANIMAL/DAY | weekly food consumption, MEAN (in vivo; female dogs, 2.0 MG/KG/DAY, WEEK 10 TO 11): 389. C/ANIMAL/DAY | weekly food consumption, MEAN (in vivo; female dogs, 2.0 MG/KG/DAY, WEEK 12 TO 13): 355. C/ANIMAL/DAY | weekly food consumption, MEAN (in vivo; female dogs, 6.0 MG/KG/DAY group, WEEK −1 TO 0 (before dosing)): 275. C/ANIMAL/DAY | weekly food consumption, MEAN (in vivo; female dogs, 6.0 MG/KG/DAY, WEEK 0 TO 1): 247. C/ANIMAL/DAY | weekly food consumption, MEAN (in vivo; female dogs, 6.0 MG/KG/DAY, WEEK 1 TO 2): 288. C/ANIMAL/DAY | weekly food consumption, MEAN (in vivo; female dogs, 6.0 MG/KG/DAY, WEEK 2 TO 3): 307. C/ANIMAL/DAY | weekly food consumption, MEAN (in vivo; female dogs, 6.0 MG/KG/DAY, WEEK 3 TO 4): 307. C/ANIMAL/DAY | weekly food consumption, MEAN (in vivo; female dogs, 6.0 MG/KG/DAY, WEEK 4 TO 5): 350. C/ANIMAL/DAY | weekly food consumption, MEAN (in vivo; female dogs, 6.0 MG/KG/DAY, WEEK 5 TO 6): 374. C/ANIMAL/DAY | weekly food consumption, MEAN (in vivo; female dogs, 6.0 MG/KG/DAY, WEEK 6 TO 7): 381. C/ANIMAL/DAY | weekly food consumption, MEAN (in vivo; female dogs, 6.0 MG/KG/DAY, WEEK 7 TO 8): 356. C/ANIMAL/DAY | weekly food consumption, MEAN (in vivo; female dogs, 6.0 MG/KG/DAY, WEEK 8 TO 9): 368. C/ANIMAL/DAY | weekly food consumption, MEAN (in vivo; female dogs, 6.0 MG/KG/DAY, WEEK 9 TO 10): 360. C/ANIMAL/DAY | weekly food consumption, MEAN (in vivo; female dogs, 6.0 MG/KG/DAY, WEEK 10 TO 11): 367. C/ANIMAL/DAY | weekly food consumption, MEAN (in vivo; female dogs, 6.0 MG/KG/DAY, WEEK 11 TO 12): 357. C/ANIMAL/DAY | weekly food consumption, MEAN (in vivo; female dogs, 6.0 MG/KG/DAY, WEEK 12 TO 13): 331. C/ANIMAL/DAY | weekly food consumption, MEAN (in vivo; female dogs, 20 MG/KG/DAY group, WEEK −1 TO 0 (before dosing)): 275. C/ANIMAL/DAY | weekly food consumption, MEAN (in vivo; female dogs, 20 MG/KG/DAY, WEEK 0 TO 1): 212.* C/ANIMAL/DAY | weekly food consumption, MEAN (in vivo; female dogs, 20 MG/KG/DAY, WEEK 1 TO 2): 295. C/ANIMAL/DAY | weekly food consumption, MEAN (in vivo; female dogs, 20 MG/KG/DAY, WEEK 2 TO 3): 314. C/ANIMAL/DAY | weekly food consumption, MEAN (in vivo; female dogs, 20 MG/KG/DAY, WEEK 3 TO 4): 337. C/ANIMAL/DAY | weekly food consumption, MEAN (in vivo; female dogs, 20 MG/KG/DAY, WEEK 4 TO 5): 356. C/ANIMAL/DAY | weekly food consumption, MEAN (in vivo; female dogs, 20 MG/KG/DAY, WEEK 5 TO 6): 331. C/ANIMAL/DAY | weekly food consumption, MEAN (in vivo; female dogs, 20 MG/KG/DAY, WEEK 6 TO 7): 328. C/ANIMAL/DAY | weekly food consumption, MEAN (in vivo; female dogs, 20 MG/KG/DAY, WEEK 7 TO 8): 325. C/ANIMAL/DAY | weekly food consumption, MEAN (in vivo; female dogs, 20 MG/KG/DAY, WEEK 8 TO 9): 375. C/ANIMAL/DAY | weekly food consumption, MEAN (in vivo; female dogs, 20 MG/KG/DAY, WEEK 9 TO 10): 322. C/ANIMAL/DAY | weekly food consumption, MEAN (in vivo; female dogs, 20 MG/KG/DAY, WEEK 10 TO 11): 350. C/ANIMAL/DAY | weekly food consumption, MEAN (in vivo; female dogs, 20 MG/KG/DAY, WEEK 11 TO 12): 305. C/ANIMAL/DAY | weekly food consumption, MEAN (in vivo; female dogs, 20 MG/KG/DAY, WEEK 12 TO 13): 249. C/ANIMAL/DAY | mean total cumulative body weight change, lower than control (in vivo; male dogs, 20 mg/kg/day, end of 13-week study (body weight loss)): 120% | mean food consumption, lower than control (in vivo; male dogs, 20 mg/kg/day, first week of dose administration): 33% | food consumption, less than control values (in vivo; male dogs, 20 mg/kg/day, generally, throughout the study): at least 10% | mean body weight, lower than control (in vivo; male dogs, 20 mg/kg/day): 13% | mean food consumption, lower than control (in vivo; male dogs, 20 mg/kg/day, study weeks 6 to 13 except week 8 to 9, not statistically significant): at least 10% | weekly food consumption, MEAN (in vivo; male dogs, 2.0 MG/KG/DAY group, WEEK −1 TO 0 (before dosing)): 339. C/ANIMAL/DAY | weekly food consumption, MEAN (in vivo; male dogs, 2.0 MG/KG/DAY, WEEK 0 TO 1): 320. C/ANIMAL/DAY | weekly food consumption, MEAN (in vivo; male dogs, 2.0 MG/KG/DAY, WEEK 1 TO 2): 354. C/ANIMAL/DAY | weekly food consumption, MEAN (in vivo; male dogs, 2.0 MG/KG/DAY, WEEK 2 TO 3): 373. C/ANIMAL/DAY | weekly food consumption, MEAN (in vivo; male dogs, 2.0 MG/KG/DAY, WEEK 3 TO 4): 366. C/ANIMAL/DAY | weekly food consumption, MEAN (in vivo; male dogs, 2.0 MG/KG/DAY, WEEK 4 TO 5): 369. C/ANIMAL/DAY | weekly food consumption, MEAN (in vivo; male dogs, 2.0 MG/KG/DAY, WEEK 5 TO 6): 360. C/ANIMAL/DAY | weekly food consumption, MEAN (in vivo; male dogs, 2.0 MG/KG/DAY, WEEK 6 TO 7): 393. C/ANIMAL/DAY | weekly food consumption, MEAN (in vivo; male dogs, 2.0 MG/KG/DAY, WEEK 7 TO 8): 360. C/ANIMAL/DAY | weekly food consumption, MEAN (in vivo; male dogs, 2.0 MG/KG/DAY, WEEK 8 TO 9): 388. C/ANIMAL/DAY | weekly food consumption, MEAN (in vivo; male dogs, 2.0 MG/KG/DAY, WEEK 9 TO 10): 375. C/ANIMAL/DAY | weekly food consumption, MEAN (in vivo; male dogs, 2.0 MG/KG/DAY, WEEK 10 TO 11): 389. C/ANIMAL/DAY | weekly food consumption, MEAN (in vivo; male dogs, 2.0 MG/KG/DAY, WEEK 12 TO 13): 355. C/ANIMAL/DAY | weekly food consumption, MEAN (in vivo; male dogs, 6.0 MG/KG/DAY group, WEEK −1 TO 0 (before dosing)): 331. C/ANIMAL/DAY | weekly food consumption, MEAN (in vivo; male dogs, 6.0 MG/KG/DAY, WEEK 0 TO 1): 351. C/ANIMAL/DAY | weekly food consumption, MEAN (in vivo; male dogs, 6.0 MG/KG/DAY, WEEK 1 TO 2): 370. C/ANIMAL/DAY | weekly food consumption, MEAN (in vivo; male dogs, 6.0 MG/KG/DAY, WEEK 3 TO 4): 380. C/ANIMAL/DAY | weekly food consumption, MEAN (in vivo; male dogs, 6.0 MG/KG/DAY, WEEK 4 TO 5): 350. C/ANIMAL/DAY | weekly food consumption, MEAN (in vivo; male dogs, 6.0 MG/KG/DAY, WEEK 5 TO 6): 374. C/ANIMAL/DAY | weekly food consumption, MEAN (in vivo; male dogs, 6.0 MG/KG/DAY, WEEK 6 TO 7): 381. C/ANIMAL/DAY | weekly food consumption, MEAN (in vivo; male dogs, 6.0 MG/KG/DAY, WEEK 7 TO 8): 356. C/ANIMAL/DAY | weekly food consumption, MEAN (in vivo; male dogs, 6.0 MG/KG/DAY, WEEK 8 TO 9): 368. C/ANIMAL/DAY | weekly food consumption, MEAN (in vivo; male dogs, 6.0 MG/KG/DAY, WEEK 9 TO 10): 360. C/ANIMAL/DAY | weekly food consumption, MEAN (in vivo; male dogs, 6.0 MG/KG/DAY, WEEK 10 TO 11): 367. C/ANIMAL/DAY | weekly food consumption, MEAN (in vivo; male dogs, 6.0 MG/KG/DAY, WEEK 11 TO 12): 357. C/ANIMAL/DAY | weekly food consumption, MEAN (in vivo; male dogs, 6.0 MG/KG/DAY, WEEK 12 TO 13): 331. C/ANIMAL/DAY | weekly food consumption, MEAN (in vivo; male dogs, 20 MG/KG/DAY group, WEEK −1 TO 0 (before dosing)): 337. C/ANIMAL/DAY | weekly food consumption, MEAN (in vivo; male dogs, 20 MG/KG/DAY, WEEK 0 TO 1): 228.* C/ANIMAL/DAY | weekly food consumption, MEAN (in vivo; male dogs, 20 MG/KG/DAY, WEEK 1 TO 2): 319. C/ANIMAL/DAY | weekly food consumption, MEAN (in vivo; male dogs, 20 MG/KG/DAY, WEEK 2 TO 3): 326. C/ANIMAL/DAY | weekly food consumption, MEAN (in vivo; male dogs, 20 MG/KG/DAY, WEEK 3 TO 4): 357. C/ANIMAL/DAY | weekly food consumption, MEAN (in vivo; male dogs, 20 MG/KG/DAY, WEEK 4 TO 5): 356. C/ANIMAL/DAY | weekly food consumption, MEAN (in vivo; male dogs, 20 MG/KG/DAY, WEEK 5 TO 6): 331. C/ANIMAL/DAY | weekly food consumption, MEAN (in vivo; male dogs, 20 MG/KG/DAY, WEEK 6 TO 7): 328. C/ANIMAL/DAY | weekly food consumption, MEAN (in vivo; male dogs, 20 MG/KG/DAY, WEEK 7 TO 8): 325. C/ANIMAL/DAY | weekly food consumption, MEAN (in vivo; male dogs, 20 MG/KG/DAY, WEEK 8 TO 9): 375. C/ANIMAL/DAY | weekly food consumption, MEAN (in vivo; male dogs, 20 MG/KG/DAY, WEEK 9 TO 10): 322. C/ANIMAL/DAY | weekly food consumption, MEAN (in vivo; male dogs, 20 MG/KG/DAY, WEEK 10 TO 11): 350. C/ANIMAL/DAY | weekly food consumption, MEAN (in vivo; male dogs, 20 MG/KG/DAY, WEEK 11 TO 12): 305. C/ANIMAL/DAY | weekly food consumption, MEAN (in vivo; male dogs, 20 MG/KG/DAY, WEEK 12 TO 13): 249. C/ANIMAL/DAY
